Experimental findings from patent publication US11147884B2, “Inhibitors of NHE-mediated antiport” (Ardelyx, Inc., priority 2017, dated 2021) are described below.

One may read the IC50 as the concentration at which inhibition is half-maximal. Low values mean higher potency, high ones lower potency.

In assay [1] the test system is human ileum monolayer culture. Briefly: Transepithelial electrical resistance (TEER) in human ileum organoid monolayer cultures. The format is cell-based. As for the experimental part: Each human ileum monolayer culture well was washed twice with fresh SBM on the apical side on day 6 before compound dosing. All compound stocks were 10 mM dissolved in DMSO. Each compound stock was individually mixed with fresh SBM to reach final compound concentration and dosed only on the apical side of the monolayer (total volume 200 μl). DMSO at the equivalent concentration was used as the vehicle control. Duplicate wells were dosed for each compound. Transepithelial electrical resistance (TEER) was used as a quantitative technique to measure of tight junction permeability. TEER values were recorded using a volt/ohm meter (MERS00002, Millipore) before and after dosing for all wells. Each of the duplicate TEER values following treatment were corrected for the individual well baseline TEER. Baseline corrected TEER for each example compound was compared to the average of the DMSO wells and expressed as a percent TEER of vehicle control. Intracellular pH was measured in human ileum stem cells grown as monolayers on 96 well Transwell plates cells incubated with 10 μM of pH sensitive dye BCECF-AM (Life Technologies, cat# B1150) for 30 min at 37° C., 5% CO2 in Na-containing buffer (120 mM NaCl, 10 mM HEPES, 10 mM glucose, 5 mM KCl, 2 mM CaCl2, 1 mM MgCl2, pH 7.4). After 30 min the dye was aspirated and cells were washed twice with Na-containing buffer.
Fluorescent readings were acquired every 5 minutes for a period of 30 minutes on a Flexstation microplate reader at dual excitation wavelengths of 495 nm and 439 nm and emission wavelength of 538 nm (Molecular Devices). The fluorescent ratio for pH indication was calculated from ratio of the two excitation wavelengths (495/439 nm).

Assay [2] relates to human ileum stem cells grown as monolayers. Briefly: Intracellular pH (BCECF-AM) in human ileum monolayers. The class given is cell-based. The settings on record: human ileum monolayer.
Assay [3] addresses T1, human NHE3 (Homo sapiens, UniProt P48764).
T1 construct: host or cells: PS120 fibroblasts
T1 sequence (P48764 26-834): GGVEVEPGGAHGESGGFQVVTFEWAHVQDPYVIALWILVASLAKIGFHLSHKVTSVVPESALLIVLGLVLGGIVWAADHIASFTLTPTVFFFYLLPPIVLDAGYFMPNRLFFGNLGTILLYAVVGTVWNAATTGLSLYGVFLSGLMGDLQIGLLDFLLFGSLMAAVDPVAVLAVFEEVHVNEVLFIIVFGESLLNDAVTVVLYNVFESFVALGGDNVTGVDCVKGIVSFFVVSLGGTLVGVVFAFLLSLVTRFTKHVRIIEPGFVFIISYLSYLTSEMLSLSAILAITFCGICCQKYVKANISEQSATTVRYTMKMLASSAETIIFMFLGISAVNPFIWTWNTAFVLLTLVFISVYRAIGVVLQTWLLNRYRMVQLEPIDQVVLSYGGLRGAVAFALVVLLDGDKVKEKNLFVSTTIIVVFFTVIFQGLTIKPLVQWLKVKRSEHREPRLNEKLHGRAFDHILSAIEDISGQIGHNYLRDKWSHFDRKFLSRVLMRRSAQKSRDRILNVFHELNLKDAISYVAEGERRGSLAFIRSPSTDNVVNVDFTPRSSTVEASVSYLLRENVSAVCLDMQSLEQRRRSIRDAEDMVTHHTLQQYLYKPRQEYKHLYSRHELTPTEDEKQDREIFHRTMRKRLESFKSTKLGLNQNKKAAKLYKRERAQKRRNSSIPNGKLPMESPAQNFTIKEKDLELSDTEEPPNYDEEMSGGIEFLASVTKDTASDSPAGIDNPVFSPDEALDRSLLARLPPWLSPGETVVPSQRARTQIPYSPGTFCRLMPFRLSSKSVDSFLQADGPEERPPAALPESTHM
T1 sequence (Q99653 2-195 partner limits assumed): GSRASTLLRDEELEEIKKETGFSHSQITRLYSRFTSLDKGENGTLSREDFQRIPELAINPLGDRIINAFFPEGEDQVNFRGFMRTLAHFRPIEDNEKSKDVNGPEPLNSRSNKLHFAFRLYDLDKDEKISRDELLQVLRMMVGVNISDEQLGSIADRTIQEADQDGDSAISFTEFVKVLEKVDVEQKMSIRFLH
Briefly: Cell-based assay of NHE-3 activity (persistent inhibition after washout), human. The settings on record: human Persistence assay; after 60 min incubation and washout. As for the experimental part:
The ability of compounds to inhibit human and rat NHE-3-mediated Na^+-dependent H^+ antiport after application and washout was measured using a modification of the pH sensitive dye method described above. PS120 fibroblasts stably expressing human NHE3 and NHERF2 were obtained from Mark Donowitz (Baltimore, Md.). Opossum kidney (OK) cells were obtained from the ATCC and propagated per their instructions. The rat NHE-3 gene was introduced into OK cells via electroporation, and cells were seeded into 96 well plates and grown overnight. Medium was aspirated from the wells, cells were washed once with NaCl-HEPES buffer (100 mM NaCl, 50 mM HEPES, 10 mM glucose, 5 mM KCl, 2 mM CaCl2, 1 mM MgCl2, pH 7.4), then overlayed with NaCl-HEPES buffer containing 0-30 μM test compound. After a 60 min incubation at room temperature, the test drug containing buffer was aspirated from the cells. Following aspiration, cells were washed once with NaCl-HEPES buffer without drug, then incubated for 30 min at 37° C. with NH4Cl-HEPES buffer (20 mM NH4Cl, 80 mM NaCl, 50 mM HEPES. 5 mM KCl, 2 mM CaCl2), 1 mM MgCl2, pH 7.4) containing 5 μM BCECF-AM. Cells were washed once with Ammonium free, Na^+-free HEPES (100 mM choline, 50 mM HEPES, 10 mM glucose. 5 mM KCl, 2 mM CaCl2), 1 mM MgCl2, pH 7.4) and incubated in the same buffer for 10 minutes at room temperature to lower intracellular pH. NHE-3-mediated recovery of neutral intracellular pH was initiated (10 min after compound washout) by addition of Na-HEPES buffer. […] Changes in intracellular pH were monitored using a FLIPR Tetra® (Molecular Devices, Sunnyvale, Calif.) by excitation at λex 439 to 505 nm, and measuring BCECF fluorescence at λem 538 nm. The initial rate of the fluorescence ratio change was used as a measure of NHE-mediated Na^+/H^+ activity, and reported as the change in fluorescence ratio per minute.

The target in assay [4] is T1, human NHE3. Briefly: Cell-based assay of NHE-3 activity (pre-incubation inhibition), human. The conditions noted are these: human Preincuba assay; PS120 fibroblasts expressing human NHE3 and NHERF2. As for the experimental part: Rat and human NHE-3-mediated Na^+-dependent H^+ antiport was measured using a modification of the pH sensitive dye method originally reported by Paradiso (Proc. Natl. Acad. Sci. USA. (1984) 81(23): 7436-7440). PS120 fibroblasts stably expressing human NHE3 and NHERF2 were obtained from Mark Donowitz (Baltimore, Md.). Opossum kidney (OK) cells were obtained from the ATCC and propagated per their instructions. The rat NHE-3 gene (GenBank M85300) was introduced into OK cells via electroporation, and cells were seeded into 96 well plates and grown overnight. Medium was aspirated from the wells then incubated for 30 min at 37° C. with NH4Cl-HEPES buffer (20 mM […], 80 mM NaCl, 50 mM HEPES, 5 mM KCl, 2 mM CaCl2, 1 mM MgCl2, pH 7.4) containing 5 μM BCECF-AM. Cells were washed once with Ammonium free, Na^t-free HEPES (100 mM choline, 50 mM HEPES, 10 mM glucose, 5 mM KCl, 2 mM CaCl2), 1 mM MgCl2, pH 7.4) and incubated in the same buffer for 10 minutes at room temperature to lower intracellular pH with 0-30 μM test compound. […] Changes in intracellular pH were monitored using a FLIPR Tetra®® (Molecular Devices, Sunnyvale, Calif.) by excitation at λex 439 to 505 nm, and measuring BCECF fluorescence at λem 538 nm. The initial rate of the fluorescence ratio change was used as a measure of NHE-mediated Na^+/H^+ activity, and reported as the change in fluorescence ratio per minute.

A further assay addresses T2, NHE3 (Homo sapiens, UniProt P48764).
T2 construct: the increase in NHE3 expression after differentiation; endogenous in cells; host or cells: enterocytes (differentiated human ileum organoid monolayer cultures)
T2 sequence (P48764 26-834): T1 sequence (P48764 26-834)
Briefly: NHE3 activity in enterocytes by intracellular pH recovery following acid loading. The format is cell-based.

FCCP: the “TEER compared with control” value in assay [1] (3 μM, vs DMSO (FIG. 1D)) is “increased TEER compared with control”. For the same compound, the “intracellular pH compared with control” value in assay [2] (3 μM, vs DMSO (FIG. 1C)) is “decrease intracellular pH”.

In the case of `CN1Cc2c(Cl)cc(Cl)cc2C(c2cccc(S(=O)(=O)N[C@@H]3CCN(CCOCCNC(=O)NCCCCNC(=O)NCCOCCN4CC[C@@H](NS(=O)(=O)c5cccc(C6CN(C)Cc7c(Cl)cc(Cl)cc76)c5)C4)C3)c2)C1` (stereo partly drawn) [Example 24, N,N′-[(3R,3′R)-(7,14-Dioxo-3,18-dioxa-6,8,13,15-tetraazaicosane-1,20-diyl)bis(pyrrolidine-1,3-diyl)]bis[3-(6,8-dichloro-2-methyl-1,2,3,4-tetrahydroisoquinolin-4-yl)benzenesulfonamide]], on human NHE3 [3], the “% inhibition” value was “C (>70%)” and the IC50 is below 0.1 µM. In addition, at human NHE3 [4], the “% inhibition” value is “C (>70%)” and the IC50 is below 0.1 µM.

Regarding `CO[C@@H]1C[C@@H](C[C@H]2CC[C@H](C)[C@H]([C@@H](C)C(=O)O)O2)O[C@]2(O[C@](C)([C@H]3CC[C@@](C)([C@@H]4O[C@@H]([C@H]5O[C@@](O)(CO)[C@H](C)C[C@@H]5C)C[C@@H]4C)O3)C[C@H]2C)[C@@H]1C` [nigericin], the “intracellular pH compared with control” value in assay [2] (apical dosing, vs DMSO (FIG. 1A)) is listed as “reduced intracellular pH compared with control”. In addition, at NHE3, the “inhibition of NHE3 activity in enterocytes” value is “neither nigericin, BAM15 nor FCCP inhibited NHE3 activity”.

On to `CN1Cc2c(Cl)cc(Cl)cc2[C@H](c2cccc(S(=O)(=O)NC(C)(C)COCCOCCNC(=O)NCCCCNC(=O)NCCOCCOCC(C)(C)NS(=O)(=O)c3cccc([C@@H]4CN(C)Cc5c(Cl)cc(Cl)cc54)c3)c2)C1` [Example 47, 3-(2-[2-[2-([3-[(4S)-6,8-dichloro-2-methyl-1,2,3,4-tetrahydroisoquinolin-4-yl]benzene]sulfonamido)-2-methylpropoxy]ethoxy]ethyl)-1-(4-[[(2-[2-[2-([3-[(4S)-6,8-dichloro-2-methyl-1,2,3,4-tetrahydroisoquinolin-4-yl]benzene]sulfonamido)-2-methylpropoxy]ethoxy]ethyl)carbamoyl]amino]butyl)urea], for which the “% inhibition” value on human NHE3 [3] and at human NHE3 [4] was “C (>70%)” throughout. In addition, the IC50 on human NHE3 [3] was 0.1 to 1 µM; against human NHE3 [4], below 0.1 µM.

`CN1Cc2c(Cl)cc(Cl)cc2[C@H](c2cccc(S(=O)(=O)N3CCC(OCCOCCNC(=O)NCCCCNC(=O)NCCOCCOC4CCN(S(=O)(=O)c5cccc([C@@H]6CN(C)Cc7c(Cl)cc(Cl)cc76)c5)CC4)CC3)c2)C1` [Example 48]: on human NHE3 [3], the “% inhibition” value was “C (>70%)” and the IC50 was 0.1 to 1 µM. For the same compound, on human NHE3 [4], the “% inhibition” value is given as “C (>70%)” and the 50% inhibitory concentration (IC50) was below 0.1 µM.

Take `CN1Cc2c(Cl)cc(Cl)cc2[C@H](c2cccc(S(=O)(=O)NCCOCCOCCNC(=O)NCCCCNC(=O)NCCOCCOCCNS(=O)(=O)c3cccc([C@@H]4CN(C)Cc5c(Cl)cc(Cl)cc54)c3)c2)C1` [tenapanor]: in assay [1] (apical dosing, vs DMSO (FIG. 1B)), the “TEER relative to control” value was “increase in TEER relative to control”.

`CN1Cc2c(Cl)cc(Cl)cc2[C@H](c2cccc(S(=O)(=O)N3CC[C@H](OCCOCCNC(=O)NCCCCNC(=O)NCCOCCO[C@H]4CCN(S(=O)(=O)c5cccc([C@@H]6CN(C)Cc7c(Cl)cc(Cl)cc76)c5)C4)C3)c2)C1` [Example 50]: at human NHE3 [3], the “% inhibition” value is “C (>70%)” and the IC50 is 0.1 to 1 µM. Further, on human NHE3 [4], the “% inhibition” value was “C (>70%)” and the IC50 is below 0.1 µM.

As for `CC(C)[C@H](COCCOCCNC(=O)NCCCCNC(=O)NCCOCCOC[C@H](NS(=O)(=O)c1cccc([C@@H]2CN(C)Cc3c(Cl)cc(Cl)cc32)c1)C(C)C)NS(=O)(=O)c1cccc([C@@H]2CN(C)Cc3c(Cl)cc(Cl)cc32)c1` [Example 51], on human NHE3 [3], the “% inhibition” value is “A (NHE3 <40%)” and the IC50 was above 1 µM. Also, on human NHE3 [4], the “% inhibition” value was “A (NHE3 <40%)” and the IC50 is above 1 µM.

Consider `CN1Cc2c(Cl)cc(Cl)cc2[C@H](c2cccc(S(=O)(=O)N3CC[C@@H](OCCOCCNC(=O)NCCCCNC(=O)NCCOCCO[C@@H]4CCN(S(=O)(=O)c5cccc([C@@H]6CN(C)Cc7c(Cl)cc(Cl)cc76)c5)C4)C3)c2)C1` [Example 49, 1-(2-(2-(((R)-1-((3-((S)-6,8-dichloro-2-methyl-1,2,3,4-tetrahydroisoquinolin-4-yl)phenyl)sulfonyl)pyrrolidin-3-yl)oxy)ethoxy)ethyl)-3-(4-(3-(2-(2-(((R)-1-((3-((S)-6,8-dichloro-2-methyl-1,2,3,4-tetrahydroisoquinolin-4-yl)phenyl)sulfonyl)pyrrolidin-3-yl)oxy)ethoxy)ethyl)ureido)buty)urea], for which, on human NHE3 [3], the “% inhibition” value is “C (>70%)” and the IC50 was 0.1 to 1 µM. Further, at human NHE3 [4], the “% inhibition” value is listed as “C (>70%)” and the half-inhibitory concentration (IC50) is below 0.1 µM.
